Test results reported in patent US6596712B2, “Treatment of carcinomas using squalamine in combination with other anti-cancer agents or modalities” (Genaera Corporation, priority 1996, dated 2003).

Tests used:
rabbit NHE3 = target: T1, rabbit NHE3 (Oryctolagus cuniculus, UniProt P26432); experiment: NHE activity, rabbit NHE3; format: cell-based; details: for decrease of Vmax of rabbit NHE3: 1 hour pretreatment
T1 construct: expressed in transfected cells

rabbit NHE1 = target: T2, rabbit NHE1 (Oryctolagus cuniculus, UniProt P23791); experiment: NHE activity, rabbit NHE1; format: cell-based; details: similar tests
T2 construct: expressed in transfected cells

[1] = system: Calu-6 human lung adenocarcinoma line; experiment: Nude mouse xenograft model of lung cancer with cisplatin, Calu-6; format: in vivo; details: started on day 4 or 5, daily i.p.
Source text: Studies in a nude mouse xenograft model of lung cancer have been carried out using several human lung cancer lines which differ in their growth rate. […] The experimental lung cancer model design involves subcutaneous injection of 5×10^6 tumor cells followed by a single injection of the chemotherapeutic drug on day 3 or 4. […] Groups of mice receiving squalamine alone started receiving the aminosterol on the same day as aminosterol treatment in the combination chemotherapy groups. Tumor volumes were then determined at termination of the experiment and compared.

[2] = system: brush border membrane vesicle (BBMV) NHE; experiment: Brush border membrane vesicle (BBMV) NHE inhibition; format: biochemical; details: tissue pretreated; 30 minutes exposure
[3] = Tissue distribution after i.v. administration; format: in vivo, mouse; details: two hours after i.v. administration
Source text: In addition to these squalamine half-life tests, applicants have tested to ascertain the distribution of squalamine in a mouse after intravenous administration. FIG. 7 illustrates the distribution of squalamine in mouse tissue two hours after i.v. administration. […] The test results shown in FIG. 7 indicate good squalamine distribution. […] In treating brain tumors, it is believed that the squalamine acts on the endothelial cells in the brain, and in this way, it need not cross the brain/blood barrier

C4-2 cells = experiment: C4-2 cell growth in vitro ([3H]-thymidine incorporation); format: cell-based, human
Description: The anti-proliferative effect of squalamine was evaluated in tissue culture by both crystal violet staining and [^3H]-thymidine incorporation, on the LNCaP/C4-2 human prostate cancer progression model. Developed by applicants' laboratory, this lineage-derived cell line recapitulates the progression of human neoplastic prostate disease from an androgen-dependent and minimally metastatic condition (LNCaP cells) to an androgen-independent (defined as being able to proliferate in castrate hosts) and highly aggressive state (C4-2 subline).

[4] = system: transfected PS 120 fibroblast cells; experiment: LDH leakage from transfected cells; format: cell-based; details: during NHE inhibiting effect
Description: In the transfected cells used in this test, it took at least 30 minutes before the NHE3 inhibition effect induced by squalamine was observed.

[5] = system: tumor induced capillary formation in rabbit cornea; experiment: Rabbit corneal micropocket assay (VX2 carcinoma stimulus); format: in vivo; details: for reduction of Angiogenesis Index (AI) vs untreated eyes: pellet 20% squalamine
Source text: In determining whether a compound is antiangiogenic, the rabbit corneal micropocket assay is an accepted standard test. In this test, an incision is made in one rabbit cornea, and a stimulus is placed in the incision. The stimulus is used to induce blood vessel formation in the normally avascular corneal region. As one example, a solid tumor in a polymeric matrix can be placed in the cornea as the stimulus because the tumor will release a number of angiogenic growth factors to stimulate new capillary growth. The tumor-derived angiogenic growth factors stimulate the endothelial cells at the scleral junction in the eye to initiate blood vessel growth toward the stimulus. A second polymer pellet (e.g., an ethylene/vinyl acetate copolymer) is placed between the scleral junction and the stimulus. This polymer pellet is either empty (a negative control test pellet), or it contains a compound whose antiangiogenic characteristics are to be tested. The polymer pellet is used to provide a controlled release of the material to be studied. Because of the avascular cornea background in the rabbit cornea, one can visually assess the results qualitatively. In addition, the number of blood vessels can be counted and their length, etc., can be measured to provide a more quantitative evaluation of the results.
The VX2 rabbit carcinoma was implanted in 26 rabbit eyes, in the normally avascular corneal region, to act as an angiogenesis stimulus. […] The eyes were examined weekly using a slit lamp stereomicroscope for three weeks after tumor implantment, and the Angiogenesis Index (“AI”) was calculated (this calculation will be described in more detail below with reference to FIG. 8). […]
To provide a quantitative evaluation, the Angiogenesis Index (“AI”) of each eye was determined. […]
The vessel length (“Lvessel”) was then measured in each cornea. The vessel length is the length of the longest vessel measured from the cornea-scleral junction to the distal edge of the longest vessel growth. The Angiogenesis Index then is determined from these measurements by the following equation: [formula]

NHE1 = NHE1 (Homo sapiens, UniProt P19634); experiment: NHE activity in PS 120 fibroblasts transfected with human NHE1; format: cell-based; set-up: expressed in transfected cells; host or cells: PS 120 NHE-deficient fibroblasts; details: 7 μg/ml squalamine; acid loaded cells
Description: The following describes the test used to determine that squalamine inhibits NHE3, but not NHE1 or NHE2. NHE deficient fibroblast cells (PS 120) transfected with an individual human NHE gene were loaded with a pH sensitive dye 2′7′-bis(2-carboxyethyl)-5,6-carboxyfluorescein (BCECF). NHE activity was measured by spectrofluorometric methods using this dye and by amiloride sensitive isotopic ^22Na^+cellular uptake. The cells were acidified by exposure to ammonium chloride in the absence of sodium to eliminate sodium and deactivate the proton pumps. The ammonium chloride was washed out by exposing the cells to tetramethyl ammonium chloride in bicarbonate free medium. […] Sodium then was added back at various concentrations (see the abscissa of FIGS. 5a and 5b) to drive the antiporters (human NHE3 in FIG. 5a and human NHE1 in FIG. 5b). The antiporters were driven at different rates, as evidenced by the cellular pH change rate, depending on the amount of sodium added.

T1 sequence (P26432 30-832): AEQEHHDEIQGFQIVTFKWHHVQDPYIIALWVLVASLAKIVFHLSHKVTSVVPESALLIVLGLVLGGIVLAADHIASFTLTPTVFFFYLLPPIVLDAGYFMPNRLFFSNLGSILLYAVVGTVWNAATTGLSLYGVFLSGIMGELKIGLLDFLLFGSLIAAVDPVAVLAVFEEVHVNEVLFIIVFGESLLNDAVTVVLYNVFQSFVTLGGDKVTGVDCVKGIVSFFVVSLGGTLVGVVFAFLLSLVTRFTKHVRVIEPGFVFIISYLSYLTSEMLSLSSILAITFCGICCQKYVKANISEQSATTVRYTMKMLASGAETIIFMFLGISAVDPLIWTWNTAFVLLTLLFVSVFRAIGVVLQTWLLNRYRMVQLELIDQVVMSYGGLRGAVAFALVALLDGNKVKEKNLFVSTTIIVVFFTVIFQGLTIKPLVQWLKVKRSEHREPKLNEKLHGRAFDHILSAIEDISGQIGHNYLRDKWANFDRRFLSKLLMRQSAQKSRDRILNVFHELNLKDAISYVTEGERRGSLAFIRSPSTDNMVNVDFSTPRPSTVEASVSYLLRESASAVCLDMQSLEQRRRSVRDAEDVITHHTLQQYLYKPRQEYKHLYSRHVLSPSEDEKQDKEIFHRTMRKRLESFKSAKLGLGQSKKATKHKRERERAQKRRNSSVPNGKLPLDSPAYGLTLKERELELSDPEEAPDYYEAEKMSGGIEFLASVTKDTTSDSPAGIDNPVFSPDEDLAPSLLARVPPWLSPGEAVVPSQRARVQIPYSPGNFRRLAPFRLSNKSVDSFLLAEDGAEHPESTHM
T2 sequence (P23791 whole entry): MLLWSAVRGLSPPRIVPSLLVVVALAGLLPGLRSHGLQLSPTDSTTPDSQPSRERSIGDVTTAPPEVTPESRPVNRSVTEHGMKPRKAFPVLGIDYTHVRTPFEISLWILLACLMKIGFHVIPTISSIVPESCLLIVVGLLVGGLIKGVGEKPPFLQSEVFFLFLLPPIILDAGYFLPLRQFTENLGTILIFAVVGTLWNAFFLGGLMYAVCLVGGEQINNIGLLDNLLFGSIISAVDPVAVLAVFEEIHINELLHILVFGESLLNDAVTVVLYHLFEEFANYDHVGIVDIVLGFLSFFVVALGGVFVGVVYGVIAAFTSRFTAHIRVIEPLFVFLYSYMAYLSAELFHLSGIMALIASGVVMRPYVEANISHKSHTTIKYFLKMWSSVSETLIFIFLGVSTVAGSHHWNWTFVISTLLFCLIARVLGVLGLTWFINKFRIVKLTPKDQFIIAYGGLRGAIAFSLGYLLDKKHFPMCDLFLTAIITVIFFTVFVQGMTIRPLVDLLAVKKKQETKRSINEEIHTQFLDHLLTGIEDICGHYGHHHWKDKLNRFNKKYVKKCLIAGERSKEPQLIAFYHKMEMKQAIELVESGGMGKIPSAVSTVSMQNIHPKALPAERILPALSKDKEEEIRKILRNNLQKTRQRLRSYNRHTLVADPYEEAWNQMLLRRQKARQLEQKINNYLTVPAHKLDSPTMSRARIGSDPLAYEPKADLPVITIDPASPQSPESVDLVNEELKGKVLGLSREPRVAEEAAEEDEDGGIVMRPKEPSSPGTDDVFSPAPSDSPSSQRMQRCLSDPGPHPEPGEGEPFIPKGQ
Chain of NHE1 (P19634 whole entry): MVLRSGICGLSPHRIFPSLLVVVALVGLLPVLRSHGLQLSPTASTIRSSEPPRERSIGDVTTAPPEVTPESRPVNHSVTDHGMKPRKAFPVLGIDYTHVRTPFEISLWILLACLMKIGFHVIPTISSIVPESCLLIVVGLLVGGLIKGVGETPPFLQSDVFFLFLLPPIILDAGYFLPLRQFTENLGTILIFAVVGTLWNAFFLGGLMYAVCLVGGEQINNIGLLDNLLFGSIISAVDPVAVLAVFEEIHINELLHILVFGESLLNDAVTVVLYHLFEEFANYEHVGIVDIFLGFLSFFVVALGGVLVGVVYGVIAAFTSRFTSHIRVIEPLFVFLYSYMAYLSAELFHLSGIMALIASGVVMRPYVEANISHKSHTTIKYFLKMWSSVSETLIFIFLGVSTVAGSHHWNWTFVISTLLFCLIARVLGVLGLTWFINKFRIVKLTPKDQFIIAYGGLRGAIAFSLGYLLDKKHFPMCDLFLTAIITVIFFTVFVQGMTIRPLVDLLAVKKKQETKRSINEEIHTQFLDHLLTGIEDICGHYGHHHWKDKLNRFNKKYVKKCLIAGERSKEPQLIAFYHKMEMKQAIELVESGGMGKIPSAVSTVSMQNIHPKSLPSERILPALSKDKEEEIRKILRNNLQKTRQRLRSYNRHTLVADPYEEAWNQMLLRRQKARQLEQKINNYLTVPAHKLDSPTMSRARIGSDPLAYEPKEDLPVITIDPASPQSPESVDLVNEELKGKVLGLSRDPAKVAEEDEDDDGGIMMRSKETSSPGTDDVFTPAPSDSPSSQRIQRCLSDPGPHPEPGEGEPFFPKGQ

CC(C)[C@@H](CC[C@@H](C)[C@H]1CC[C@H]2[C@@H]3[C@H](O)C[C@H]4C[C@@H](NCCCNCCCCN)CC[C@]4(C)[C@H]3CC[C@]12C)OS(=O)(=O)O [Squalamine, squalamine]
time dependence of effect on Vmax (rabbit NHE3): maximum effect occurring at one hour exposure | decrease of Vmax of rabbit NHE3 (rabbit NHE3; 1 μg squalamine/ml): 13% | decrease of Vmax of rabbit NHE3 (rabbit NHE3; 5 μg squalamine/ml): 47% | decrease of Vmax of rabbit NHE3 (rabbit NHE3; 7 μg squalamine/ml): 57% | reversibility of effect on Vmax (rabbit NHE3; after removing the cells from the medium): fully reversible within three hours | effect on rabbit NHE3 (rabbit NHE3; similar tests): inhibited | effect on rabbit NHE1 (rabbit NHE1): not affected | tumor growth, monotherapy [1]: minimal effects on tumor growth | inhibition of BBMV NHE [2]: 51% | distribution in mouse tissue [3]: most of the squalamine concentrating in the liver and the small intestine | squalamine in brain tissue [3]: not much squalamine is present in brain tissue | growth of C4-2 cells, squalamine by itself (C4-2 cells; no exogenous VEGF): nominal effect | C4-2 proliferation (C4-2 cells; with addition of exogenous VEGF, to a greater extent than LNCaP): inhibited | LDH leakage from the cell [4]: absence of lactase dehydrogenase (LDH) leakage | reduction of Angiogenesis Index (AI) vs untreated eyes ([5]; Day 14): 37% | reduction of Angiogenesis Index (AI) vs untreated eyes ([5]; Day 21): 43% | vasculature of tumors in sectioned corneas ([5]; histology after the test): essentially no vasculature associated with those tumors | effect on human NHE1 antiporter (pH change rate) (NHE1): no effective difference in the pH change rate
